Values quoted from earlier work as cited in patent publication US8192775B2, “Crystallization of polyol compositions, crystalline polyol composition product and use thereof” (Danisco Sweeteners Oy, priority 2002, dated 2012).

Conditions: water at 20° C.

Row | solubility in water | Structure (SMILES)
1 | 62 % (w/w) | OC[C@@H](O)[C@@H](O[C@H]1O[C@H](CO)[C@@H](O)[C@H](O)[C@H]1O)[C@H](O)[C@@H](O)CO [Maltitol]
2 | 63 (w/w) | OC[C@@H](O)[C@H](O)[C@@H](O)CO [Xylitol]
